From patent publication US20220017483A1, “AMINOPYRIDINE COMPOUND, PREPARATION METHOD THEREFOR AND USE THEREOF” (SICHUAN-KELUN-BIOTECH BIOPHARMACEUTICAL CO., LTD, priority 2018, published 2022)
Read-outs that look alike come from different tables or passages of the source.

What was measured:
[1] = biological target: T1, A2a receptor cell membrane (human origin) (Homo sapiens, UniProt P29274); assay: Competitive inhibition constant (Ki) for adenosine A2a receptor, [3H]-CGS-21680 radioligand binding; settings: for Ki(A1)/Ki(A2a): selectivity ratio A1 over A2a
T1 construct: purchased PerkinElmer RBHA2AM400UA
Description: A2a receptor cell membrane (human origin): PerkinElmer, RBHA2AM400UA
A2a test buffer: 50 mM Tris-HCl, 10 mM MgCl2, 1 mM EDTA, pH7.4
(§1) The A1 receptor cell membrane was diluted to 0.025 μg/μl with the A1 test buffer and the A2a receptor cell membrane was diluted to 0.05 μg/μl with the A2a test buffer to obtain an A1 receptor cell membrane dilution and an A2a receptor cell membrane dilution.
(§2) The tested compound and CGS15943 were gradiently diluted with DMSO. 1 μl test compound, high-value control (0.5% DMSO), low-value control (1000 nM CGS15943) were added to a 96-well plate, wherein each well was added with 100 μl A1 receptor cell membrane dilution (containing 2.5 μg cell membrane) to obtain an A1 detection plate. Through the same steps, 100 μl A2a receptor cell membrane dilution (containing 5.0 μg cell membrane) was added to each well of a 96-well plate to obtain an A2a detection plate.
The A1 and A2a detection plates were sealed with a tap, and incubated at room temperature for 1 h and 2 h, respectively.
(§3) Unifilter-96 GF/C filter plate was prepared. The Unifilter-96 GF/C filter plate was added with 50 μl 0.3% PEI in each well, and incubated at room temperature for no less than 0.5 h.
(§4) After the incubation, the reaction solutions in the A1 detection plate and the A2a detection plate were transferred to two Unifilter-96 GF/C filter plates. The filter plates were washed with the corresponding pre-cooled washing buffers, then oven dried. After sealing the bottom of the filter plates, 50 μl of Microscint 20 cocktail scintillation fluid was added. After sealing the top of the filter plates, the plates were read in the counter MicroBeta2 Reader.
(§5) Data analysis: The inhibition rate was calculated according to the following formula:
(§6) Inhibition rate %=100−(the signal value of the tested wells−the signal average of the low-value control)/(the signal average of the high-value control−the signal average of the low-value control)*100.
(§7) IC50 was fitted by EXCEL XLfit. The competitive inhibition constant (Ki) was calculated according to the formula: Ki=IC50/(1+the concentration of the isotope-labelled ligands/Kd); Kd is the dissociation constant of the isotope-labeled ligands.

[2] = Pharmacokinetics and brain tissue distribution in rats, intragastric administration (PO); format: in vivo, male SD rats; settings: rat; for bioavailability / AUC(0-t): male, SD, plasma; for bioavailability: po, orally administered 5 mg/kg compared to intravenous 1 mg/kg; for AUC(0-t) / Plasma AUClast/Brain AUClast / AUClast (brain) / capability to penetrate the blood-brain barrier / exposure to brain tissue (in words): PO, 5 mg/kg; for AUC(0-t): read-out: AUClast (plasma); for AUClast (brain): brain tissue homogenate
Description: (§8) Experimental Example 2: Pharmacokinetics (PK) and Brain Tissue Distribution Study in Rats
(§9) The compounds of the present invention and control compound 2 were administered to male SD rats by intravenous injection (IV) and intragastric administration (PO) respectively to study the pharmacokinetic characteristics.
(§10) The compounds of the present invention and control compound 2
(§11) synthesized according to the prior art process) were administered by IV and PO. IV and PO dosages were 1 mg/kg and 5 mg/kg, respectively. The vehicle for the IV administration of the compounds of the present invention was a mixture of 5% DMSO:5% Solutol (polyethylene glycol-15 hydroxystearate):90% physiological saline; and the vehicle for the IV administration of control compound 2 was a mixture of 10% DMSO:10% Solutol (polyethylene glycol-15 hydroxystearate):80% physiological saline. The vehicle for the PO administration of the compounds was 0.5% MC (sodium methylcellulose). Blood was collected before IV administration (0 h), and at time points of 0.083, 0.25, 0.5, 1, 2, 4, 6, 8, 24 h or longer (for example, adding time points of 32 and 48 h) after IV administration; and blood was collected before PO administration (0 h), and at time points of 0.25, 0.5, 1, 2, 4, 6, 8, 24 h or longer (for example, adding time points of 32 and 48 h) after PO administration. EDTA.K2 was used for anticoagulation of the blood, and a plasma sample was obtained after centrifugation. Brain tissue homogenates were taken at 0.25, 0.5, 1, and 8 hours after PO administration (3 animals for each time point). The plasma samples and brain tissue homogenate samples were stored at −80° C. Plasma samples and brain tissue homogenates were subjected to analysis by LC-MS/MS, after protein precipitation. The pharmacokinetic parameters were calculated by using non-compartmental model with WinNonlin 6.3 software.

[3] = biological target: T2, A1 receptor cell membrane (human origin) (Homo sapiens, UniProt P30542); assay: Competitive inhibition constant (Ki) for adenosine A1 receptor, [3H]-DPCPX radioligand binding; settings: [3H]-DPCPX 1.0 nM
T2 construct: purchased PerkinElmer ES-010-M400UA
T2 sequence (P30542 1-326): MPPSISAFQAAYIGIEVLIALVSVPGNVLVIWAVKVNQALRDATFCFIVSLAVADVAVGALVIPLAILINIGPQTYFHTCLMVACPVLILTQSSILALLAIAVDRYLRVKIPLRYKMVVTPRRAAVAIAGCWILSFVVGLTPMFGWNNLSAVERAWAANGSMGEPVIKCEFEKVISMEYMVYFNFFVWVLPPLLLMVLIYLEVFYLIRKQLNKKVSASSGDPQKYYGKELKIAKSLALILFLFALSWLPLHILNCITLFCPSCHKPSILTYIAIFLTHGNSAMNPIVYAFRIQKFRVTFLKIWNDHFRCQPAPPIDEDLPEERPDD
Description: Experimental Example 1: Determination of the Competitive Inhibition Constant (Ki) for Adenosine A1 and A2a Receptors
[^3H]-DPCPX: PerkinElmer, NET974250UC
A1 receptor cell membrane (human origin): PerkinElmer, ES-010-M400UA
A1 test buffer: 25 mM HEPES, 5 mM MgCl2, 1 mM CaCl2, 100 mM NaCl, pH7.4
A1 washing buffer: 25 mM HEPES, 5 mM MgCl2, 1 mM CaCl2, 100 mM NaCl, pH7.4
as §1, §2
100 μl of radioisotope-labelled ligand [^3H]-DPCPX (diluted in A1 test buffer, working concentration 1.0 nM) was added to the A1 detection plate, and 100 μl of radioisotope-labelled ligand [^3H]-CGS-21680 (diluted in A2a test buffer, working concentration 6.0 nM) was added to the A2a detection plate. The A1 and A2a detection plates were sealed with a tap, and incubated at room temperature for 1 h and 2 h, respectively.
as §3, §4, §5, §6, §7

[4] = Pharmacokinetics in rats, intravenous injection (IV); format: in vivo; settings: male, SD, rat, 1 mg/kg, plasma
Description: as §8, §9, §10, §11

[5] = human A2a receptor cell membrane, [3H]-CGS-21680 6.0 nM, read-out: Ki(A2a)

T1 sequence (P29274 whole entry): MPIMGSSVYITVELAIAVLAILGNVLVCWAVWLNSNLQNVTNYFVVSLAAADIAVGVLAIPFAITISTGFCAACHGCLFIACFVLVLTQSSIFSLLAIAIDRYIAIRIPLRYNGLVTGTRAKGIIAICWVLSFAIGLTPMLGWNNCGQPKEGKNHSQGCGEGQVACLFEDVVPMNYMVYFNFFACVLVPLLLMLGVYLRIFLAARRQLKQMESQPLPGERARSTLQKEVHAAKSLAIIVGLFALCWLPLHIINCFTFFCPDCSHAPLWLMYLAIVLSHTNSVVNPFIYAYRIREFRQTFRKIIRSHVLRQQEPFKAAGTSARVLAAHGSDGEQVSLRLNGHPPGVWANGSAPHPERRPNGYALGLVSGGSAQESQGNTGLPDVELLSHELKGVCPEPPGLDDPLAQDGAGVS

| Ki [1, 5] | bioavailability [2] | AUC(0-t) [2] | Plasma AUClast/Brain AUClast [2] | AUClast (brain) [2] | AUC(0-t) [4] | Cmax [4] | Structure (SMILES) | Ki(A1)/Ki(A2a) [1] | Ki [3] | capability to penetrate the blood-brain barrier / exposure to brain tissue (in words) [2] | Ki [1] |
| --- | --- | --- | --- | --- | --- | --- | --- | --- | --- | --- | --- |
| 13.2 nM | 68.5% | 8010 ng·h/mL | 331/1 | 24.2 (h*ng/g, | 2340 ng·h/mL | 1340 ng/mL | Cc1ncnc2ccc(-c3cc(-c4cnn(CC(C)(C)O)c4)c(N)nc3-c3ccc(F)cc3)cc12 [Compound 21, 1-(4-(2-amino-6-(4-fluorophenyl)-5-(4-methylquinazolin-6-yl)-pyridin-3-yl)-1H-pyrazol-1-yl)-2-methylpropan-2-ol] | 108.0 | 1420 nM |  |  |
|  | 46.5% | 1200 ng·h/mL |  | 1013 (h*ng/g, | 518 ng·h/mL | 913 ng/mL | Cc1ncnc2ccc(-c3nnc(N)nc3-c3ccc(F)cc3)cc12 [Control compound 2, reference compound] |  |  | significantly stronger |  |
| 3.4 nM | 73.9% | 24700 ng·h/mL | 73/1 | 337 (h*ng/g, | 6660 ng·h/mL | 1250 ng/mL | Cc1ncnc2ccc(-c3cc(C(N)=O)c(N)nc3-c3ccc(F)cc3)cc12 [Compound 6, 2-amino-6-(4-fluorophenyl)-5-(4-methylquinazolin-6-yl)nicotinamide] | 644.6 | 2190 nM |  |  |

| Structure (SMILES) | Ki [1, 5] | bioavailability [2] | AUC(0-t) [2] | Plasma AUClast/Brain AUClast [2] | AUClast (brain) [2] | AUC(0-t) [4] | Cmax [4] | Ki(A1)/Ki(A2a) [1] | Ki [3] | capability to penetrate the blood-brain barrier / exposure to brain tissue (in words) [2] | Ki [1] |
| --- | --- | --- | --- | --- | --- | --- | --- | --- | --- | --- | --- |
| CNC(=O)Cn1cc(-c2cc(-c3ccc4ncnc(C)c4c3)c(-c3ccc(F)cc3)nc2N)cn1 [Compound 19, 2-(4-(2-amino-6-(4-fluorophenyl)-5-(4-methylquinazolin-6-yl)-pyridin-3-yl)-1H-pyrazol-1-yl)-N-methylacetamide] | 9.9 nM | 95.2% | 18800 ng·h/mL | 776/1 | 24.2 (h*ng/g, | 3940 ng·h/mL | 2960 ng/mL | 51.8 | 513 nM |  |  |
| Cc1ncnc2ccc(-c3cc(-c4cnn(CCC(N)=O)c4)c(N)nc3-c3ccc(F)cc3)cc12 [Compound 20, 3-(4-(2-amino-6-(4-fluorophenyl)-5-(4-methylquinazolin-6-yl)-pyridin-3-yl)-1H-pyrazol-1-yl)propionamide] |  |  | 1900 ng·h/mL |  | undetectable | 2530 ng·h/mL | 3330 ng/mL | 68.8 | 963 nM | only very low exposure to brain tissue | 14 nM |
